Assay results published in patent US20220119354A1, “DIAMINO-SUBSTITUTED PYRIDINES AND PYRIMIDINES AS HERBICIDES” (FMC Corporation, priority 2019, published 2022).

Columns and labels:
Type in all cases: in vivo
[1] = tested on: barnyardgrass (Echinochloa crus-galli); test: Test A preemergence, barnyardgrass; settings: 0 to 100 scale; for Barnyardgrass plant response rating: 0 is no effect, 100 is complete control
Procedure, shortened: (§1)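 Steps: plant seeds in loam/sand; spray soil (pre) or seedlings at 1–2 leaves, 2–10 cm (post) with compound in solvent plus surfactant; keep in greenhouse ~10 d; score injury visually against untreated controls, 0–100.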

kochia (Kochia scoparia) [2] = test: Test A preemergence, kochia; settings: 0 to 100 scale; for Kochia plant response rating: 0 is no effect, 100 is complete control
Procedure, shortened: as §1

[3] = tested on: ragweed (common ragweed, Ambrosia elatior); test: Test A preemergence, ragweed; settings: 0 to 100 scale; for Ragweed plant response rating: 0 is no effect, 100 is complete control
Procedure, shortened: as §1

[4] = tested on: ryegrass, Italian (Lolium multiflorum); test: Test A preemergence, Italian ryegrass; settings: 0 to 100 scale; for Ryegrass, Italian plant response rating: 0 is no effect, 100 is complete control
Procedure, shortened: as §1

[5] = tested on: foxtail, giant (Setaria faberii); test: Test A preemergence, giant foxtail; settings: 0 to 100 scale; for Foxtail, Giant plant response rating: 0 is no effect, 100 is complete control
Procedure, shortened: as §1

[6] = tested on: pigweed (Amaranthus retroflexus); test: Test A preemergence, pigweed; settings: 0 to 100 scale; for Pigweed plant response rating: 0 is no effect, 100 is complete control
Procedure, shortened: as §1

[7] = tested on: barnyardgrass (Echinochloa crus-galli); test: Test A postemergence, barnyardgrass; settings: 0 to 100 scale
Procedure, shortened: as §1

kochia (Kochia scoparia) [8] = test: Test A postemergence, kochia; settings: 0 to 100 scale
Procedure, shortened: as §1

[9] = tested on: ragweed (common ragweed, Ambrosia elatior); test: Test A postemergence, ragweed; settings: 0 to 100 scale
Procedure, shortened: as §1

[10] = tested on: ryegrass, Italian (Lolium multiflorum); test: Test A postemergence, Italian ryegrass; settings: 0 to 100 scale
Procedure, shortened: as §1

[11] = tested on: foxtail, giant (Setaria faberii); test: Test A postemergence, giant foxtail; settings: 0 to 100 scale
Procedure, shortened: as §1

[12] = tested on: pigweed (Amaranthus retroflexus); test: Test A postemergence, pigweed; settings: 0 to 100 scale
Procedure, shortened: as §1

[13] = tested on: wheat (Triticum aestivum); test: Test A postemergence, wheat; settings: 0 to 100 scale
Procedure, shortened: as §1

corn (Zea mays) = test: Test A postemergence, corn; settings: 0 to 100 scale
Procedure, shortened: as §1

[14] = tested on: blackgrass (Alopecurus myosuroides); test: Test A postemergence, blackgrass; settings: 0 to 100 scale
Procedure, shortened: as §1

[15] = tested on: galium (catchweed bedstraw, Galium aparine); test: Test A postemergence, galium; settings: 0 to 100 scale
Procedure, shortened: as §1

rice (Oryza sativa) = test: Test B flooded paddy test, rice; settings: Flood, 250 g ai/ha, applied to paddy water, 2-leaf stage, visual evaluation after 13 to 15 d
Procedure, shortened: (§2)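 Each response is a visual 0–100 rating made against untreated controls, where 0 is no effect and 100 is complete control; a dash marks no result. Compound was dosed into 3 cm paddy water over 2-leaf plants, assessed after 13 to 15 d.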

[16] = tested on: sedge, umbrella (small-flower umbrella sedge, Cyperus difformis); test: Test B flooded paddy test, umbrella sedge; settings: Flood, 250 g ai/ha, applied to paddy water, 2-leaf stage, visual evaluation after 13 to 15 d
Procedure, shortened: as §2

[17] = tested on: ducksalad (Heteranthera limosa); test: Test B flooded paddy test, ducksalad; settings: Flood, 250 g ai/ha, applied to paddy water, 2-leaf stage, visual evaluation after 13 to 15 d
Procedure, shortened: as §2

[18] = tested on: barnyardgrass (Echinochloa crus-galli); test: Test B flooded paddy test, barnyardgrass; settings: Flood, 250 g ai/ha, applied to paddy water, 2-leaf stage, visual evaluation after 13 to 15 d
Procedure, shortened: as §2

[19] = 31 g ai/ha, 0 no effect, 100 complete control
[20] = 125 g ai/ha, 0 no effect, 100 complete control

Cc1cccc2sc([C@@H](C)Nc3ncc(C(F)(F)F)c(N)n3)cc12 [Compound 115]
30: Foxtail, Giant plant response rating ([5]; 31 g ai/ha) | Plant response rating, Ragweed [9, 19] | Plant response rating, Ryegrass, Italian [10, 19] | Plant response rating, Blackgrass [14, 20]
60: Barnyardgrass plant response rating ([1]; 125 g ai/ha) | Ragweed plant response rating ([3]; 31 g ai/ha) | Plant response rating, Foxtail, Giant [11, 19]
80: Kochia plant response rating (kochia (Kochia scoparia) [2]; 125 g ai/ha) | Ragweed plant response rating ([3]; 125 g ai/ha) | Plant response rating, Ragweed [9, 20]
70: Plant response rating, Kochia (kochia (Kochia scoparia) [8]; [19])
20: Barnyardgrass plant response rating ([1]; 31 g ai/ha) | Ryegrass, Italian plant response rating ([4]; 31 g ai/ha) | Plant response rating, Wheat [13, 20]
50: Plant response rating, Ryegrass, Italian [10, 20] | Plant response rating, Galium [15, 19]
10: Plant response rating, Barnyardgrass [7, 19] | Plant response rating, Corn (corn (Zea mays); [19])
95: Plant response rating, Sedge, Umbrella (0 to 100 scale, 0 is no effect, 100 is complete control) [16]
90: Foxtail, Giant plant response rating ([5]; 125 g ai/ha) | Pigweed plant response rating ([6]; 31 g ai/ha) | Plant response rating, Kochia (kochia (Kochia scoparia) [8]; [20]) | Plant response rating, Galium [15, 20] | Plant response rating, Barnyardgrass (0 to 100 scale, 0 is no effect, 100 is complete control) [18]
100: Pigweed plant response rating ([6]; 125 g ai/ha) | Plant response rating, Barnyardgrass [7, 20] | Plant response rating, Foxtail, Giant [11, 20] | Plant response rating, Pigweed [12, 19] | Plant response rating, Pigweed [12, 20] | Plant response rating, Corn (corn (Zea mays); [20])
40: Kochia plant response rating (kochia (Kochia scoparia) [2]; 31 g ai/ha) | Ryegrass, Italian plant response rating ([4]; 125 g ai/ha)
0: Plant response rating, Wheat [13, 19] | Plant response rating, Blackgrass [14, 19] | Plant response rating, Rice (0 to 100 scale, 0 is no effect, 100 is complete control) (rice (Oryza sativa))
65: Plant response rating, Ducksalad (0 to 100 scale, 0 is no effect, 100 is complete control) [17]

C[C@@H](Nc1ncc(C(F)(F)F)c(N)n1)c1cc2cc(F)ccc2o1 [Compound 9]
100: Plant response rating, Pigweed ([6]; 125 g ai/ha) | Plant response rating, Pigweed ([6]; 500 g ai/ha)
10: Plant response rating, Barnyardgrass ([7]; 125 g ai/ha)
20: Plant response rating, Corn (corn (Zea mays); 500 g ai/ha)
80: Plant response rating, Barnyardgrass ([1]; 125 g ai/ha) | Plant response rating, Barnyardgrass ([1]; 500 g ai/ha) | Plant response rating, Kochia (kochia (Kochia scoparia) [8]; 125 g ai/ha) | Plant response rating, Ragweed ([9]; 500 g ai/ha) | Plant response rating, Galium ([15]; 125 g ai/ha) | Plant response rating, Galium ([15]; 500 g ai/ha)
60: Plant response rating, Kochia (kochia (Kochia scoparia) [2]; 125 g ai/ha) | Plant response rating, Ragweed ([9]; 125 g ai/ha)
30: Plant response rating, Ryegrass, Italian ([10]; 500 g ai/ha) | Plant response rating, Blackgrass ([14]; 500 g ai/ha)
0: Plant response rating, Ragweed ([3]; 125 g ai/ha) | Plant response rating, Ryegrass, Italian ([4]; 125 g ai/ha) | Plant response rating, Ryegrass, Italian ([10]; 125 g ai/ha) | Plant response rating, Foxtail, Giant ([11]; 125 g ai/ha) | Plant response rating, Wheat ([13]; 125 g ai/ha) | Plant response rating, Wheat ([13]; 500 g ai/ha) | Plant response rating, Corn (corn (Zea mays); 125 g ai/ha) | Plant response rating, Blackgrass ([14]; 125 g ai/ha) | Plant response rating, Rice (0 to 100 scale, 0 is no effect, 100 is complete control) (rice (Oryza sativa)) | Plant response rating, Sedge, Umbrella (0 to 100 scale, 0 is no effect, 100 is complete control) [16] | Plant response rating, Ducksalad (0 to 100 scale, 0 is no effect, 100 is complete control) [17] | Plant response rating, Barnyardgrass (0 to 100 scale, 0 is no effect, 100 is complete control) [18]
70: Plant response rating, Kochia (kochia (Kochia scoparia) [2]; 500 g ai/ha) | Plant response rating, Barnyardgrass ([7]; 500 g ai/ha)
50: Plant response rating, Ryegrass, Italian ([4]; 500 g ai/ha)
40: Plant response rating, Foxtail, Giant ([5]; 125 g ai/ha)
90: Plant response rating, Ragweed ([3]; 500 g ai/ha) | Plant response rating, Foxtail, Giant ([5]; 500 g ai/ha) | Plant response rating, Kochia (kochia (Kochia scoparia) [8]; 500 g ai/ha) | Plant response rating, Foxtail, Giant ([11]; 500 g ai/ha) | Plant response rating, Pigweed ([12]; 125 g ai/ha) | Plant response rating, Pigweed ([12]; 500 g ai/ha)

C[C@@H](Nc1ncc(C(F)(F)F)c(N)n1)c1cc2ccc(Cl)cc2o1 [Compound 29]
90: Plant response rating, Barnyardgrass ([1]; 500 g ai/ha) | Plant response rating, Foxtail, Giant ([5]; 500 g ai/ha) | Plant response rating, Pigweed ([6]; 125 g ai/ha) | Plant response rating, Kochia (kochia (Kochia scoparia) [8]; 500 g ai/ha) | Plant response rating, Ragweed ([9]; 500 g ai/ha)
0: Plant response rating, Barnyardgrass ([1]; 125 g ai/ha) | Plant response rating, Kochia (kochia (Kochia scoparia) [2]; 125 g ai/ha) | Plant response rating, Ryegrass, Italian ([10]; 125 g ai/ha) | Plant response rating, Foxtail, Giant ([11]; 125 g ai/ha) | Plant response rating, Wheat ([13]; 125 g ai/ha) | Plant response rating, Wheat ([13]; 500 g ai/ha) | Plant response rating, Corn (corn (Zea mays); 125 g ai/ha) | Plant response rating, Blackgrass ([14]; 125 g ai/ha) | Plant response rating, Rice (0 to 100 scale, 0 is no effect, 100 is complete control) (rice (Oryza sativa)) | Plant response rating, Sedge, Umbrella (0 to 100 scale, 0 is no effect, 100 is complete control) [16] | Plant response rating, Ducksalad (0 to 100 scale, 0 is no effect, 100 is complete control) [17] | Plant response rating, Barnyardgrass (0 to 100 scale, 0 is no effect, 100 is complete control) [18]
10: Plant response rating, Ryegrass, Italian ([10]; 500 g ai/ha) | Plant response rating, Corn (corn (Zea mays); 500 g ai/ha) | Plant response rating, Blackgrass ([14]; 500 g ai/ha)
50: Plant response rating, Kochia (kochia (Kochia scoparia) [8]; 125 g ai/ha) | Plant response rating, Foxtail, Giant ([11]; 500 g ai/ha)
80: Plant response rating, Kochia (kochia (Kochia scoparia) [2]; 500 g ai/ha) | Plant response rating, Ragweed ([3]; 500 g ai/ha) | Plant response rating, Barnyardgrass ([7]; 500 g ai/ha) | Plant response rating, Galium ([15]; 125 g ai/ha)
100: Plant response rating, Pigweed ([6]; 500 g ai/ha) | Plant response rating, Pigweed ([12]; 125 g ai/ha) | Plant response rating, Pigweed ([12]; 500 g ai/ha) | Plant response rating, Galium ([15]; 500 g ai/ha)
60: Plant response rating, Foxtail, Giant ([5]; 125 g ai/ha)
20: Plant response rating, Ragweed ([3]; 125 g ai/ha) | Plant response rating, Ryegrass, Italian ([4]; 125 g ai/ha) | Plant response rating, Barnyardgrass ([7]; 125 g ai/ha) | Plant response rating, Ragweed ([9]; 125 g ai/ha)
70: Plant response rating, Ryegrass, Italian ([4]; 500 g ai/ha)
